Laboratory results reported in US20090253634A1, “Methods and Compositions for the Treatment of Gastrointestinal Disorders” (MICROBIA, INC., priority 2005, published 2009).
Bridge positions count the residues as written; N and C are the ends. Peptide text beside a SMILES is read from it.

How the values were obtained:
[1] = target: T1, aminopeptidase (Sus scrofa, UniProt P15145); experiment: in vitro proteolytic stability: aminopeptidase; type: in vitro ADME; settings: 37° C., up to 24 h
T1 construct: purchased Roche 102768
T1 sequence (P15145 1-963): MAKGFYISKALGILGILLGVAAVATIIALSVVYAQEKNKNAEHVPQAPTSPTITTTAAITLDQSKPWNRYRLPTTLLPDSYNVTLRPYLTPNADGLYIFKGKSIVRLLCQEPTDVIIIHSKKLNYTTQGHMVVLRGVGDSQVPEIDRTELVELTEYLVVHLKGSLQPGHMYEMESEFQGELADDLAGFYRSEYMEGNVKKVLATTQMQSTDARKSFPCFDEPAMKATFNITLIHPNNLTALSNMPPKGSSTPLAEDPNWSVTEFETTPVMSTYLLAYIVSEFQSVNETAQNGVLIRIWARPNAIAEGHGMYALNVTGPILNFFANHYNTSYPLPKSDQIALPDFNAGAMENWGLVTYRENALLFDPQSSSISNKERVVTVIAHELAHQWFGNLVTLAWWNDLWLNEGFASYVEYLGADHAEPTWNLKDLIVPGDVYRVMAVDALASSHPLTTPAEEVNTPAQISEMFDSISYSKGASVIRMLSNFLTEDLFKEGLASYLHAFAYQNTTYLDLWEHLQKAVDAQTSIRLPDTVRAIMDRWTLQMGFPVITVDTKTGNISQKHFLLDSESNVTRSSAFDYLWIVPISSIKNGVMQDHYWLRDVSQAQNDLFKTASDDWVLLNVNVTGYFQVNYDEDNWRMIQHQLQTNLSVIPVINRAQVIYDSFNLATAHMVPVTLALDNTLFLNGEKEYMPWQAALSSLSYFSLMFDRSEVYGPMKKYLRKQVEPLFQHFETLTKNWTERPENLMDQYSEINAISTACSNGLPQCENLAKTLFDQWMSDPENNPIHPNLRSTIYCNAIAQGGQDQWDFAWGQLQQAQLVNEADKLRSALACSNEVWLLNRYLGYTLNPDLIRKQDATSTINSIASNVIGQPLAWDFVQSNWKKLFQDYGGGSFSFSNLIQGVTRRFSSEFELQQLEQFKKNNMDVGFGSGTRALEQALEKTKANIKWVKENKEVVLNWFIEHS
Procedure: (§1) All samples were analyzed by LC/MS

[2] = test system: visceromotor response to colorectal distension; experiment: water avoidance stress-induced hyperalgesia model and basal visceral nociception; type: in vivo, Wistar rats
Procedure: The effect of SEQ ID NO:3 on basal visceral nociception in a model of water avoidance stress-induced visceral hyperalgesia in adult male Wistar rats was tested. The stress involved confining rats to a platform surrounded by water for a period of 1 hour and then measuring their visceromotor response to colonic distension using electromyography (EMG).
Electrode leads were then tunneled subcutaneously and externalized laterally for future access. Following surgery, rats were housed in pairs and allowed to recover for at least 7 days. On the day of the experiment, animals were lightly anesthetized with halothane, and a lubricated latex balloon (6 cm) was inserted intra-anally into the descending colon. Animals were allowed to recover for 30 minutes, and colorectal distension (CRD) was initiated. The CRD procedure consisted of graded intensities of phasic CRD (10, 20, 40, 60 mmHg; 20 s duration; 4 min inter-stimulus interval). Visceromotor response (VMR) to CRD was quantified by measuring EMG activity. […] Animals were allowed 1 hour recovery and then SEQ ID NO:3 or vehicle was orally administered. At 1 hour following administration of SEQ ID NO:3 or vehicle CRD was repeated. […] The mean value (+/−SEM) of in vehicle and SEQ ID NO:3 treated groups (n=7 for each group) is graphically depicted in FIG. 7e.
To determine the effect of SEQ ID NO:3 in a model of water avoidance stress-induced visceral hyperalgesia, a baseline CRD was recorded and then the animals were subjected to 1 hour of water avoidance stress. For water avoidance stress, the test apparatus consisted of a Plexiglas tank with a block affixed to the center of the floor. The tank was filled with fresh room temperature water (25° C.) to within 1 cm of the top of the block. The animals were placed on the block for a period of 1 h. The sham water avoidance stress consisted in placing the rats on the same platform in a waterless container. A second CRD was performed at 24 hours post water avoidance stress. Following the second CRD, animals were allowed 1 hour recovery and then SEQ ID NO:3 or vehicle was orally administered. […]

[3] = stability in simulated gastric fluid (SGF); type: in vitro ADME; settings: pH 1, 37° C., up to 3 h
Procedure: as §1
The reference control sample was diluted 10-fold (1000 μL volume) in distilled water for a final concentration of 10 μM and chilled on ice. At each time point, samples were diluted 10-fold (1000 μL volume) in distilled water for an expected concentration of 10 μM, and chilled on ice, until analysis.

[4] = test system: bowel habits; experiment: single oral dose study of bowel habits in humans; type: in vivo
Procedure: Single doses of 30, 100, 300, 1000 or 3000 μg of chemically synthesized SEQ ID NO:3 were given to 30 healthy males and postmenopausal females. At each dose level (100 μg was done twice) SEQ ID NO:3 or placebo (vehicle) was administered orally in 5.0 mL 50 mM phosphate buffer (pH 6.0) plus 3×20 mL water rinses and 175 mL water after at least a 10-hour fast. In each dosing group, subjects were randomized to receive either placebo (1 subject) or SEQ ID NO:3 (3-4 subjects). Bowel habits (including Bristol Stool Form Scale score (BSFS; FIG. 14a), stool frequency, and stool weight) were evaluated for each collected bowel movement 48 hours prior to dose and up to approximately 48 hours postdose.

C[C@@H]1NC(=O)[C@@H]2CCCN2C(=O)[C@H](CC(N)=O)NC(=O)[C@@H]2CSSC[C@H](N)C(=O)N[C@H]3CSSC[C@H](NC1=O)C(=O)N[C@@H]([C@@H](C)O)C(=O)NCC(=O)N[C@H](C(=O)N[C@@H](Cc1ccc(O)cc1)C(=O)O)CSSC[C@H](NC(=O)[C@H](Cc1ccc(O)cc1)NC(=O)[C@H](CCC(=O)O)NC3=O)C(=O)N2 [SEQ ID NO:3] (H-CCEYCCNPACTGCY-OH; disulfide 1-6, 2-10, 5-13; N-terminus and C-terminus assumed)
Cleavage of SEQ ID NO: 3 by proteolytic substance [1]: not detectable
basal visceral nociception ([2]; oral 3 μg/kg): had no effects
visceromotor response to CRD 24 hours after water avoidance stress ([2]; oral 3 μg/kg): exhibited anti-hyperalgesic properties
basal visceral nociception versus vehicle ([2]; oral 30 μg/kg): increased basal visceral nociception
Cleavage of SEQ ID NO: 3 by proteolytic substance [3]: not detectable
percent of subjects with a 2-point or greater increase in BSFS score ([4]; 1000 μg dose group, mean pre-dose compared to peak 48 hours post-dose): highest percent of subjects
BSFS post-dose scores, relation to dose ([4]; single oral dose 30-3000 μg): Higher BSFS post-dose scores correlated with a higher dose
maximum BSFS (Bristol Stool Form Scale) score ([4]; single oral dose 30-3000 μg, healthy males and postmenopausal females): increase in maximum BSFS score
